Test results: paper PMC9511441, “Semisynthetic teicoplanin derivatives with dual antimicrobial activity against SARS-CoV-2 and multiresistant bacteria” (Scientific Reports, 2022)
≈ marks a conversion by molar mass, not a printed value. Where two headings read alike, the source gives them in different places.

Tests used:
S. epidermidis = assay: microbe, parasite or virus in culture; type: cell-based; conditions: Staphylococcus epidermidis
Description: (§1) We determined the minimal inhibitory concentrations (MIC) of the teicoplanin conjugates for a large panel of Gram-positive bacterial strains, using vancomycin, unmodified teicoplanin, dalbavancin and oritavancin as reference compounds. […] The bacterial strains (see Suppl. Table S5 for all details) were selected to achieve maximum diversity of multidrug-resistance and include strains with known mechanisms of resistance to glycopeptides in clinical use. The S. epidermidis and S. haemolyticus strains resistant to dalbavancin and oritavancin were obtained in vitro from clinical isolates sensitive to the glycopeptide antibiotics.

E. faecium = assay: microbe, parasite or virus in culture; type: cell-based; conditions: Enterococcus faecium
Description: as §1

VeroE6 cells = assay: Cytotoxicity in mock-infected VeroE6 cells (XTT); type: cell-based, African green monkey; conditions: mock-infected Vero E6 cells, three days, XTT
Calu-3 cells = assay: Cytotoxicity in mock-infected Calu-3 cells (XTT); conditions: read-out: CC50, Calu-3 cells, three days
HEL cells = assay: Cytotoxicity in mock-infected HEL cells (MTS); type: cell-based, human; conditions: mock-infected HEL cells, MTS, mean of 2–3 tests
S. aureus = assay: MIC, broth microdilution; type: cell-based; conditions: Staphylococcus aureus
Description: as §1

S.pyogenes = assay: MIC, broth microdilution; type: cell-based; conditions: Streptococcus pyogenes
Description: as §1

E. faecalis = assay: MIC, broth microdilution; type: cell-based; conditions: Enterococcus faecalis
Description: as §1

S. haemolyticus = assay: MIC, broth microdilution; type: cell-based; conditions: Staphylococcus haemolyticus
Description: as §1

[1] = target: T1, human recombinant cathepsin L (Homo sapiens, UniProt P07711); assay: biochemical; type: biochemical
T1 construct: made in house; host or cells: Escherichia coli
Method: Cathepsin L inhibition was assessed as reported. Briefly, human recombinant cathepsin L was expressed in Escherichia coli[33]. Enzymatic activity was determined in 100 mM acetate buffer (pH 5.5) containing 0.1% PEG 8000, 5 mM cysteine and 1.5 mM EDTA. The enzyme was first activated in assay buffer for 5 min at 37 °C, after which it was added to the wells of a black microplate containing the Z-Phe-Arg-AMC substrate (Bachem) and compounds. Formation of the fluorescent cleavage product was monitored for 50 min at 37 °C, using a Tecan Infinit M1000 spectrofluorimeter set at 460 nm emission and 380 nm excitation wavelength. All assay mixtures contained 5% (v/v) DMSO and 0.01% Triton X-100 to prevent false-positive inhibition due to formation of compound aggregates. All measurements were performed in triplicate and repeated twice. The relative inhibition was calculated using the equation: Relative inhibition (%) = 100(1 − vi/vo), where vi and vo designate the reaction velocities in the presence and absence of inhibitor, respectively. IC50 values were determined from nine data points at different inhibitor concentrations.

[2] = Cytotoxicity in mock-infected VeroE6 cells (XTT); type: cell-based, African green monkey; conditions: African green monkey; for CC50: mock-infected Vero E6 cells, three days, XTT
SARS-CoV-2 = assay: microbe, parasite or virus in culture; type: cell-based; conditions: for EC50: Severe acute respiratory syndrome coronavirus 2, Vero C1008, 72 h, Vero E6 cells, three days, XTT, read-out: EC50, CPE reduction, SARS-CoV-2 in Vero E6 cells
[3] = test system: Escherichia coli ATCC 25218; assay: MIC against Gram-negative strain; conditions: ATCC25218
[4] = test system: Pseudomonas aeruginosa ATCC 27853; assay: MIC against Gram-negative strain; conditions: ATCC27853
[5] = test system: Klebsiella pneumoniae ST258 clone K 160/09; assay: MIC against Gram-negative strain; conditions: Klebsiella pneumoniae
[6] = test system: Acinetobacter baumannii ATCC BAA1605; assay: MIC against Gram-negative strain; conditions: Acinetobacter baumannii, ATCCBAA1605
SARS-CoV-2 pseudovirus [7] = assay: microbe, parasite or virus in culture; type: cell-based; conditions: A549-AT cells, TMPRSS2-mediated uptake
SARS-CoV-2 pseudovirus [8] = assay: microbe, parasite or virus in culture; type: cell-based; conditions: cathepsin-dependent endosomal pathway
[9] = read-out: Cathepsin L IC50, pH 5.5, Z-Phe-Arg-AMC substrate

T1 sequence (P07711 114-333): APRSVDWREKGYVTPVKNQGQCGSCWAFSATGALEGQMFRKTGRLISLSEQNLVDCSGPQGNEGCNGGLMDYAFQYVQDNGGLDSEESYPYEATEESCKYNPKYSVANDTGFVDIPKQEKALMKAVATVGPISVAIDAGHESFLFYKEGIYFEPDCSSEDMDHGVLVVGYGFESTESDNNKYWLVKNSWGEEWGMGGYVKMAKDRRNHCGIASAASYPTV

CC(=O)N[C@H]1[C@H](O[C@@H]2c3ccc(c(Cl)c3)Oc3cc4cc(c3O)Oc3ccc(cc3Cl)C[C@H]3NC(=O)[C@H](NC(=O)CCC(F)(F)C(F)(F)C(F)(F)C(F)(F)C(F)(F)C(F)(F)C(F)(F)C(F)(F)F)c5ccc(O)c(c5)Oc5cc(O)cc(c5)[C@H](NC3=O)C(=O)N[C@H]4C(=O)N[C@H]3C(=O)N[C@@H]2C(=O)N[C@H](C(=O)O)c2cc(O)cc(O)c2-c2cc3ccc2O)O[C@H](CO)[C@@H](O)[C@@H]1O [Compound 5]
MIC (S. epidermidis; read-out: Average MIC value, S. epidermidis mecA, 6 strains): 1.4 µg/mL (≈ 0.746 µM)
MIC (S. epidermidis; read-out: MIC value, S.epidermidis ORI_R1, mecA): 4 µg/mL (≈ 2.13 µM)
MIC (S. epidermidis; read-out: MIC value, S.epidermidis ORI_R2, mecA): 1 µg/mL (≈ 0.533 µM)
MIC (S. epidermidis; read-out: MIC value, S.epidermidis ORI_R3, mecA): 2 µg/mL (≈ 1.07 µM)
MIC (S. epidermidis; read-out: MIC value, S.epidermidis ORI_R4, mecA): 0.5 µg/mL (≈ 0.266 µM)
MIC (S. epidermidis; read-out: MIC value, S.epidermidis TEI_R1, mecA): 0.5 µg/mL (≈ 0.266 µM)
MIC (S. epidermidis; read-out: MIC value, S.epidermidis TEI_R2, mecA): 0.5 µg/mL (≈ 0.266 µM)
MIC (E. faecium; read-out: Average MIC value, E. faecium VAN^R,TEI^R/VanA, 8 strains): > 8 µg/mL
MIC (E. faecium; read-out: Average MIC value, E. faecium VAN^S, TEI^S, 1 strain): 0.25 µg/mL (≈ 0.133 µM)
MIC (E. faecium; read-out: MIC value, E.faecium E335, VAN,TEI,LNZ/VanA): > 8 µg/mL
MIC (E. faecium; read-out: MIC value, E.faecium E355, VAN,TEI,LNZ/VanA): > 8 µg/mL
MIC (E. faecium; read-out: MIC value, E.faecium E832, VAN,TEI,LNZ/VanA): > 8 µg/mL
MIC (E. faecium; read-out: MIC value, E.faecium E854, VAN,TEI,LNZ/VanA): > 8 µg/mL
MIC (E. faecium; read-out: MIC value, E.faecium E859, VAN,TEI,LNZ/VanA): > 8 µg/mL
MIC (E. faecium; read-out: MIC value, E.faecium E1114, VAN,TEI,LNZ/VanA): > 8 µg/mL
MIC (E. faecium; read-out: MIC value, E.faecium E1131, VAN,TEI,LNZ/VanA): > 8 µg/mL
MIC (E. faecium; read-out: MIC value, E.faecium E1132, VAN,TEI,LNZ/VanA): > 8 µg/mL
MIC (E. faecium; read-out: MIC value, E.faecium TX0016): 0.25 µg/mL (≈ 0.133 µM)
CC50 (VeroE6 cells): > 100 µM
CC50 (Calu-3 cells): > 100 µM
CC50 (HEL cells): > 100 µM
MIC (S. aureus; ATCC 29213 / MSSA, read-out: MIC value, S. aureus ATCC29213, MSSA): 1 µg/mL (≈ 0.533 µM)
MIC (S. aureus; MRSA / USA300, read-out: MIC value, S. aureus USA300, CA-MRSA): 4 µg/mL (≈ 2.13 µM)
MIC (S. aureus; MRSA, read-out: Average MIC value, S. aureus CA-MRSA, 1 strain): 4 µg/mL (≈ 2.13 µM)
MIC (S. aureus; MRSA, read-out: Average MIC value, S. aureus MRSA, 7 strains): 2.57 µg/mL (≈ 1.37 µM)
MIC (S. aureus; MRSA, read-out: MIC value, S. aureus 73OL, MRSA): 2 µg/mL (≈ 1.07 µM)
MIC (S. aureus; MRSA, read-out: MIC value, S. aureus 214OL, MRSA): 4 µg/mL (≈ 2.13 µM)
MIC (S. aureus; MRSA, read-out: MIC value, S. aureus 1041OL, MRSA): 4 µg/mL (≈ 2.13 µM)
MIC (S. aureus; MRSA, read-out: MIC value, S. aureus A6918, MRSA): 2 µg/mL (≈ 1.07 µM)
MIC (S. aureus; MRSA, read-out: MIC value, S. aureus A6919, MRSA): 2 µg/mL (≈ 1.07 µM)
MIC (S. aureus; MRSA, read-out: MIC value, S. aureus Mu50, MRSA): 2 µg/mL (≈ 1.07 µM)
MIC (S. aureus; MRSA, read-out: MIC value, S. aureus N315, MRSA): 2 µg/mL (≈ 1.07 µM)
MIC (S. aureus; MSSA / NEWMAN, read-out: MIC value, S. aureus Newman, MSSA): 2 µg/mL (≈ 1.07 µM)
MIC (S. aureus; MSSA, read-out: Average MIC value, S. aureus MSSA, 4 strains): 1.75 µg/mL (≈ 0.933 µM)
MIC (S. aureus; MSSA, read-out: MIC value, S. aureus MSSA476, MSSA): 2 µg/mL (≈ 1.07 µM)
MIC (S. aureus; MSSA, read-out: MIC value, S. aureus SA564, MSSA): 2 µg/mL (≈ 1.07 µM)
MIC (S.pyogenes; read-out: MIC value, S.pyogenes H232): 0.25 µg/mL (≈ 0.133 µM)
MIC (S.pyogenes; read-out: MIC value, S.pyogenes H550): 0.25 µg/mL (≈ 0.133 µM)
MIC (S.pyogenes; read-out: MIC value, S.pyogenes H578): 0.25 µg/mL (≈ 0.133 µM)
MIC (E. faecalis; read-out: Average MIC value, E. faecalis VAN^R,TEI^R/VanA, 1 strain): > 8 µg/mL
MIC (E. faecalis; read-out: Average MIC value, E. faecalis VAN^S, TEI^S, 2 strains): 0.25 µg/mL (≈ 0.133 µM)
MIC (E. faecalis; read-out: MIC value, E.faecalis JH2-2): 0.25 µg/mL (≈ 0.133 µM)
MIC (E. faecalis; read-out: MIC value, E.faecalis OG1RF): 0.25 µg/mL (≈ 0.133 µM)
MIC (E. faecalis; read-out: MIC value, E.faecalis V583, VAN,TEI/VanA): > 8 µg/mL
MIC (S. haemolyticus; S. haemolyticus mecA, 6 strains, read-out: Average MIC value): 7 µg/mL (≈ 3.73 µM)
MIC (S. haemolyticus; S.haemolyticus DALB_R1, mecA, read-out: MIC value): 8 µg/mL (≈ 4.26 µM)
MIC (S. haemolyticus; S.haemolyticus DALB_R2, mecA, read-out: MIC value): 8 µg/mL (≈ 4.26 µM)
MIC (S. haemolyticus; S.haemolyticus DALB_R3, mecA, read-out: MIC value): 8 µg/mL (≈ 4.26 µM)
MIC (S. haemolyticus; S.haemolyticus DALB_R4, mecA, read-out: MIC value): 8 µg/mL (≈ 4.26 µM)
MIC (S. haemolyticus; S.haemolyticus DALB_R5, mecA, read-out: MIC value): 2 µg/mL (≈ 1.07 µM)
MIC (S. haemolyticus; S.haemolyticus ORI_R1, mecA, read-out: MIC value): 8 µg/mL (≈ 4.26 µM)
IC50 [1, 9]: 52 ± 1 µM

N=C(N)NCCSCCCOc1cc(C(=O)OCc2ccccc2)cc(OCCCSCCNC(=N)N)c1OCCCSCCNC(=N)N [Compound 24]
CC50 at 3 days [2]: 33.2 µM
EC50 (SARS-CoV-2): > 100 µM
Reduction of the CPE of SARS-CoV-2 in VeroE6 cells (in words) (SARS-CoV-2): not active
MIC [3]: 3.2 µg/mL (≈ 4.34 µM)
MIC [4]: 25.6 µg/mL (≈ 34.7 µM)
MIC [5]: 128 µg/mL (≈ 173 µM)
IC50 [1]: 18 ± 1 µM
MIC [6]: 25.6 µg/mL (≈ 34.7 µM)

OCCCC(F)(F)C(F)(F)C(F)(F)C(F)(F)C(F)(F)C(F)(F)C(F)(F)C(F)(F)F [Compound 13]
CC50 [2]: > 100 µM
EC50 (SARS-CoV-2): > 100 µM
Reduction of the CPE of SARS-CoV-2 in VeroE6 cells (in words) (SARS-CoV-2): not active

OCCCC(F)(F)C(F)(F)C(F)(F)C(F)(F)C(F)(F)C(F)(F)F [Compound 9]
CC50 [2]: > 100 µM
EC50 (SARS-CoV-2): > 100 µM
Reduction of the CPE of SARS-CoV-2 in VeroE6 cells (in words) (SARS-CoV-2): not active

CCCCCCCCOC1C(OC)OC(COCCOCCOCCOCCOCc2cn(C3C(=O)NC4Cc5ccc(c(Cl)c5)Oc5cc6cc(c5O)Oc5ccc(cc5Cl)C(OC5OC(CO)C(O)C(O)C5NC(C)=O)C5NC(=O)C(NC(=O)C6NC(=O)C(NC4=O)c4cc(O)cc(c4)Oc4cc3ccc4O)c3ccc(O)c(c3)-c3c(O)cc(O)cc3C(C(=O)O)NC5=O)nn2)C(O)C1OCCCCCCCC (stereo not drawn) [Compound 1]
CC50 (VeroE6 cells): > 100 µM
Inhibition of pseudovirus entry in A549-AT cells (in words) (SARS-CoV-2 pseudovirus [7]): active, though less potent
CC50 (Calu-3 cells): 75 ± 9 µM
CC50 (HEL cells): > 100 µM
Inhibition of pseudovirus entry in Vero cells (in words) (SARS-CoV-2 pseudovirus [8]): highly effective
IC50 [1, 9]: 49 ± 1 µM
